In patent US20190117547A1, “COSMETIC COMPOSITIONS COMPRISING SCLAREOLIDE” (SYMRISE AG, priority 2016, published 2019):

Columns and labels:
Type in all cases: cell-based
[1] = test system: Human epidermal melanoma cells A375; assay: Basal melanin formation in vitro; conditions: for melanin: basal (no irradiation)
Protocol: Human epidermal melanoma cells A375 were cultured in 6-well plates. […] 48 h prior to and past to the irradiation the cells were treated with test compounds in non-cytotoxic concentrations. Melanocytes were lysed in a solution of NaOH. Melanin was quantified by measurement of absorbance at 405 nm and calculation based on a melanin standard curve.

[2] = test system: Human epidermal melanoma cells A375; assay: Visible light induced hyperpigmentation in vitro; conditions: for Inhibition vs visible light induced / melanin: visible light 480 J/cm2
Protocol: Human epidermal melanoma cells A375 were cultured in 6-well plates. The cells were exposed to visible light (480 J/cm2) with Hydrosun 750 equipped with KG1 filter. 48 h prior to and past to the irradiation the cells were treated with test compounds in non-cytotoxic concentrations. Melanocytes were lysed in a solution of NaOH. Melanin was quantified by measurement of absorbance at 405 nm and calculation based on a melanin standard curve.

[3] = test system: ex vivo human skin explants; assay: Melanin formation after visible light irradiation on ex vivo human skin; conditions: for Inhibition vs Placebo: skin explants, visible light 480 J/cm2; for % of melanin: topical on skin explants, visible light 480 J/cm2, Fontana-Masson stain
Protocol: The below formulations were applied on ex vivo human skin explants from abdominal surgery of a donor with phototype IV (Fitzpatrick scale). 48 h after the formulations were removed with a cotton pad. Skin explants were exposed to visible light (480 J/cm2) with Hydrosun 750 equipped with KG1 filter. Formulations were reapplied afterwards. 48 h later skin sections were prepared and melanin was stained by Fontana-Masson stain. Quantification of melanin was done by image analysis.

[4] = test system: EDN1(endothelin 1); assay: UVB induced gene expression (RTq PCR), EDN1; conditions: HaCaT cells, 50 μM Sclareolide, 20 mJ/cm^2 UVB, 24 hours; normalized to HPRT1 (UVB alone 22.7)
Protocol: (§1) HaCaT cells are seeded into a 12-well plate with 2.0×10^5 cells/well. After incubation over night the test compound (50 μM Sclareolide) is added to the cells and the plate is incubated for two more hours. Then cells are washed with PBS and irradiated with 20 mJ/cm^2 UVB (UVITEC Cambridge, 312 nm). PBS is removed and medium (control and with test compound) added. Cells are incubated for 24 hours. RNA is extracted and purified using the RNeasy kit (Qiagen) according to the manufacturer's instructions. The RNA concentration is determined with a photometer (Eppendorf) and 2 μg are used for reverse transcription, that is performed with the TaqMan® MicroRNACells-to-CT™ Kit (Ambion) like described in the user manual. Quantitative real time PCR is performed using the Applied Biosystems StepOne™ with customized TaqMan® Array Fast Plates with following primers: HPRT1 (hypoxanthine phosphoribosyltransferase 1) as housekeeping gene, EDN1(endothelin 1), CXCL1 (C—X—C motif chemokine ligand 1), IL6 (interleukin 6) and IL8 (C—X—C motif chemokine ligand 8). Target gene transcript levels are normalized to the HPRT1 transcript level and the relative transcript changes are calculated using the RQ=2-ΔΔCt method.

[5] = test system: CXCL1 (C—X—C motif chemokine ligand 1); assay: UVB induced gene expression (RTq PCR), CXCL1; conditions: HaCaT cells, 50 μM Sclareolide, 20 mJ/cm^2 UVB, 24 hours; normalized to HPRT1 (UVB alone 5.4)
Protocol: as §1

[6] = test system: IL8 (C—X—C motif chemokine ligand 8); assay: UVB induced gene expression (RTq PCR), IL8; conditions: HaCaT cells, 50 μM Sclareolide, 20 mJ/cm^2 UVB, 24 hours; normalized to HPRT1 (UVB alone 17.9)
Protocol: as §1

[7] = test system: IL6 (interleukin 6); assay: UVB induced gene expression (RTq PCR), IL6; conditions: HaCaT cells, 50 μM Sclareolide, 20 mJ/cm^2 UVB, 24 hours; normalized to HPRT1 (UVB alone 8.4)
Protocol: as §1

[8] = test system: genes well-known for the induction of hyperpigmentation; assay: UVB induced gene expression (RTq PCR), overall statement; conditions: HaCaT cells, 50 μM Sclareolide, summary in words
Protocol: as §1

[9] = 0.05% sclareolide formulation (C)
[10] = 0.2% sclareolide formulation (B)

SMILES: CC1(C)CCC[C@]2(C)C3CC(=O)O[C@]3(C)CC[C@@H]12 (stereo partly drawn) [sclareolide, (3aR,5aS,9aS,9bR)-deca hydro-3a,6,6,9a-tetramethylnaphtha[2,1-b]furan-2(1H)-one]
- melanin ([1]; 3.16 μM sclareolide): 0.7775 ± 0.0412 µg
- melanin ([1]; 10 μM sclareolide): 0.6554 ± 0.0408 µg
- melanin ([1]; 31.6 μM sclareolide): 0.8851 ± 0.0579 µg
- effect on basal melanin formation ([1]; summary in words): no effect
- Inhibition vs visible light induced ([2]; 3.16 μM sclareolide): 18%
- melanin ([2]; 3.16 μM sclareolide): 0.8784 ± 0.0293 µg
- Inhibition vs visible light induced ([2]; 10 μM sclareolide): 67%
- melanin ([2]; 10 μM sclareolide): 0.6306 ± 0.0675 µg
- Inhibition vs visible light induced ([2]; 31.6 μM sclareolide): 70%
- melanin ([2]; 31.6 μM sclareolide): 0.6106 ± 0.0658 µg
- inhibition of visible light induced hyperpigmentation ([2]; summary in words): significantly inhibits
- Inhibition vs Placebo [3, 9]: 1.2%
- % of melanin [3, 9]: 61.33 ± 2.2%
- Inhibition vs Placebo [3, 10]: 32.4%
- % of melanin [3, 10]: 52.46 ± 2.9%
- RQ EDN1 [4]: 11.9
- RQ CXCL1 [5]: 2.8
- RQ IL8 [6]: 10.3
- RQ IL6 [7]: 5.7
- inhibition of UVB induced upregulation of genes [8]: inhibits
